Measurements as given in patent US20040048807A1, “Angiogenesis inhibitors” (priority 2000, published 2004).

Columns and labels:
[1] = system: KB/TP cells; experiment: TP-dependent liver metastasis after injection of tumor cells into the spleen; type: in vivo, mouse; conditions: for number of metastatic nodules in liver: KB/TP cell into spleen, 4 weeks, Balb/nude mouse
Description: A Balb/nude mouse of 7-8 weeks age is anesthetized by Nembutal (pentobarbital) and abdomen is slightly incised so as to observe the spleen. 1×10^5 numbers of KB/CV cells or KB/TP cells used in Example 2 is injected into the spleen. After one minute, the spleen is excised and the incised position is sutured. 2-deoxy-L-ribose (100 mg/kg/day) is injected to subcutaneous by two times (morning and evening) every day or one time every other day. To the control group, same amount of physiological saline is injected. After 4 weeks from therapy starting, abdomen is incised, the liver is excised and the number of metastatic nodules are counted. […] The number of metastatic lesions of KB/TP cell is obviously larger than those of KB/CV cell.

[2] = system: BAE cell (endothelial cells of bovine aorta); experiment: Chemotaxis of BAE cells (collagen-coated chamber, MTT method); type: cell-based; conditions: 2DDR 10 μM + 2DLR 100 μM versus 2DDR 10 μM alone; DMEM + 1% FCS; incubation 4.5 hours
Description: The experimental results of the effect of 2-deoxy-L-ribose on the chemotaxis of BAE cell (endothelial cells of bovine aorta) are shown in FIG. 1. The numbers of inoculated cell 400000, incubation 4.5 hours Chamber coated by type 1 collagen: MTT method From left side, 1: DMEM+1% FCS (fetal calf serum) 2: 1+bFGF (angiogenesis factor) 10 ng/mL, 3: 1+2DDR (2-deoxy-D-ribose) 1 μM 4: 1+2DDR 10 μM 5: 1+2DDR 100 μM 6: 1+2DDR 10 μM+2DLR100 μM The effect of 2DLR ([…]) is obvious from the comparison between the date 4 and 6.

[3] = system: KB cells overpressing TP (KB/TP); experiment: Millipore chamber angiogenesis assay, chamber with KB cells implanted dorsal subcutaneously in mouse; type: in vivo; conditions: for number of angiogenesis (longer than 3 mm, zig-zag pattern): 100 mg/kg/day into abdominal cavity every 12 hours for 4 days, male BALB/c mouse
Description: KB cells overpressing TP (KB/TP) prepared by transfection of […] into KB cells and TP-negative KB cells (KB/CV) prepared by transfection of an empty vector are rinsed by phosphate buffered saline PBS for two times, each 1×10^5 numbers are contained into a Millipore chamber (10 mm diameter, 2 mm thickness, pore size of filter is 0.22 μm) and inserted into dorsal subcutaneous of a male BALB/c mouse of 6-7 weeks age. 2-deoxy-L-ribose (100 mg/kg/day) is administered into abdominal cavity every 12 hours for 4 days. After 4 days from the implanting, the Millipore chamber is removed, and numbers of angiogenesis (longer than 3 mm and showing zig-zag pattern) were counted using a microscope. Results by microscope observation are shown in FIG. 2 (picture A, B, C and D). The number of angiogenesis by KB/TP cell (B) is 4.33 and that of KB/CV cell (B) is 2.67. When 2-deoxy-L-ribose is administereded, that of KB/TP cell (D) becomes to 2.83 and that of […] becomes to 2.83.

O=CC[C@@H](O)[C@@H](O)CO [2-deoxy-L-ribose]
suppression of TP-dependent metastasis of tumor from spleen to liver ([1]; 100 mg/kg/day subcutaneous, overall conclusion): perfectly suppressing the TP-dependent metastasis of tumor from spleen to liver
number of metastatic nodules in liver ([1]; 100 mg/kg/day subcutaneous one time every other day): smaller than the number of metastatic nodules of KB/CV cell
number of metastatic nodules in liver ([1]; 100 mg/kg/day subcutaneous two times (morning and evening) every day (LR)): smaller than the number of metastatic nodules of KB/CV cell
effect on the chemotaxis of BAE cell [2]: obvious
suppression of the angiogenesis by TP ([3]; 100 mg/kg/day into abdominal cavity for 4 days, overall conclusion): perfectly supressing the angiogenesis by TP
number of angiogenesis (longer than 3 mm, zig-zag pattern) ([3]; KB/TP cell (D)): 2.83
number of angiogenesis (longer than 3 mm, zig-zag pattern) ([3]; KB/TP cell (E) as printed): 2.83
